Source: patent US20240158393A1, “PYRIDONE COMPOUNDS AND METHODS OF USE” (Exelixis, Inc., priority 2021, published 2024)

Legend:
Human KDR = target: T1, Human KDR (Homo sapiens, UniProt P35968); assay: Human KDR kinase assay (33P radiometric / HTRF KinEase); format: biochemical; conditions: protocols of Examples B-1 and/or B-2
T1 construct: Human KDR (residues K790-V1356, 55 nM); purchased Eurofins Pharma Discovery Services UK Limited (KinaseProfiler, B-1) and/or CarnaBio (B-2)
How it was run: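 Radiometric: KDR K790-V1356 (55 nM), MOPS pH 7.0, myelin basic protein, 10 μM [γ-33P]ATP, 40 min at room temperature, filter-bound 33P counted; nine half-log doses, top 1 μM. HTRF: KDR 790-1356, 1 μM biotinylated peptide, ATP at Km (4.0 μM), 40 min, 10 doses. IC50 from logistic fits.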

Human Mer = target: T2, Human Mer (Homo sapiens, UniProt Q12866); assay: Human Mer kinase assay (33P radiometric / HTRF KinEase); format: biochemical; conditions: protocols of Examples C-1 and/or C-2
T2 construct: Human Mer (residues R557-E882 with H628Q and R794A, 0.7 nM); purchased Eurofins Pharma Discovery Services UK Limited (KinaseProfiler service)
T2 sequence (Q12866 557-882 limits assumed): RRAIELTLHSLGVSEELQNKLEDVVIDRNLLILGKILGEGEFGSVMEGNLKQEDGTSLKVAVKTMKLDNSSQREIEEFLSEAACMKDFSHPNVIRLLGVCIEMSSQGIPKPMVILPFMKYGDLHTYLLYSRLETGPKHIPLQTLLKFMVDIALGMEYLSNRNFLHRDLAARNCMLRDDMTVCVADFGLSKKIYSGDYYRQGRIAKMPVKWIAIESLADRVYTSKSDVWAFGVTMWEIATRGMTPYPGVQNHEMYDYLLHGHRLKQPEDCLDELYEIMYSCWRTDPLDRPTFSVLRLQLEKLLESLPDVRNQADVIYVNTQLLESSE
How it was run: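 Two formats yield IC50 values. HTRF KinEase used MER residues 528-999 with ATP at Km (40 μM), 1 μM biotin-peptide, 60 min RT, […], 10 concentrations. 33P filter assay used 0.7 nM Mer R557-E882 (H628Q/R794A), 10 μM ATP, 250 μM peptide, 40 min RT, top 1 μM.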

T1 sequence (P35968 790-1356): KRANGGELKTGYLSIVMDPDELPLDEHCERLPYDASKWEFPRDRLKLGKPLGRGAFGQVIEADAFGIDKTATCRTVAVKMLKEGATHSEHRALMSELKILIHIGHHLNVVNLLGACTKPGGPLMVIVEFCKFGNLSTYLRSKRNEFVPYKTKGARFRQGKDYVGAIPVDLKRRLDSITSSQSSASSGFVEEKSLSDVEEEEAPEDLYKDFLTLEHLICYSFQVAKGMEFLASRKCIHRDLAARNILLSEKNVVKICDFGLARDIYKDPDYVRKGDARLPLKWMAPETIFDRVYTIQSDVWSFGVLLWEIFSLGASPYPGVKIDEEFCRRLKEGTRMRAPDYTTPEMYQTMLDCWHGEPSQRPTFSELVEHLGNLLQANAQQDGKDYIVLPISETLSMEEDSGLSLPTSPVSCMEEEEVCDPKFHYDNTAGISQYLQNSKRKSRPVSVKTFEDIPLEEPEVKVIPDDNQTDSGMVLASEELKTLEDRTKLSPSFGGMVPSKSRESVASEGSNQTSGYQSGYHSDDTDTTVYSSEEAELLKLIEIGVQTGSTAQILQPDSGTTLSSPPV

IC50 (Human KDR)	IC50 (Human Mer)	Compound
≤ 100 nM	> 300 nM	COc1cc2nccc(Oc3ccc(NC(=O)c4c(C)nc(C)c(C(=O)NC5CC5)c4O)cc3F)c2nc1OC [Compound 98, 5-N-Cyclopropyl-3-N-[4-[(6,7-dimethoxy-1,5-naphthyridin-4-yl)oxy]-3-fluorophenyl]-4-hydroxy-2,6-dimethylpyridine-3,5-dicarboxamide]
100 to 300 nM	> 300 nM	COc1cc2nccc(Oc3ccc(NC(=O)c4c(C)n(C)c(C)c(C(=O)O)c4=O)cc3F)c2nc1OC [Compound 92, 5-[[4-[(6,7-Dimethoxy-1,5-naphthyridin-4-yl)oxy]-3-fluorophenyl]carbamoyl]-1,2,6-trimethyl-4-oxopyridine-3-carboxylic acid]
> 300 nM	> 300 nM	COc1cc2nccc(Oc3ccc(NC(=O)c4c(C)n(C)c(C)c(C(=O)N(C)C)c4=O)cc3F)c2nc1OC [Compound 95, 5-N-[4-[(6,7-Dimethoxy-1,5-naphthyridin-4-yl)oxy]-3-fluorophenyl]-3-N,3-N,1,2,6-pentamethyl-4-oxopyridine-3,5-dicarboxamide]
> 300 nM	≤ 100 nM	COc1cc2nccc(Oc3ccc(NC(=O)c4c5n(c(C)c(C6=CCCCC6)c4=O)CCOC5)cc3)c2nc1OC [Compound 100, 7-(Cyclohexen-1-yl)-N-[4-[(6,7-dimethoxy-1,5-naphthyridin-4-yl)oxy]phenyl]-6-methyl-8-oxo-3,4-dihydro-1H-pyrido[2,1-c][1,4]oxazine-9-carboxamide]
> 300 nM	> 300 nM	COc1cnc2c(Oc3ccc(NC(=O)c4c(C)nc(C)c(C(N)=O)c4O)cc3F)ccnc2c1 [Compound 91, 3-N-[3-Fluoro-4-[(7-methoxy-1,5-naphthyridin-4-yl)oxy]phenyl]-4-hydroxy-2,6-dimethylpyridine-3,5-dicarboxamide]
≤ 100 nM	≤ 100 nM	COc1cc2nccc(Oc3ccc(NC(=O)c4c5n(c(C)c(C6=CCCCC6)c4=O)CCOC5)cc3F)c2nc1OC [Compound 80, 7-(Cyclohexen-1-yl)-N-[4-[(6,7-dimethoxy-1,5-naphthyridin-4-yl)oxy]-3-fluorophenyl]-6-methyl-8-oxo-3,4-dihydro-1H-pyrido[2,1-c][1,4]oxazine-9-carboxamide]
> 300 nM	≤ 100 nM	COc1cc2nccc(Oc3ccc(NC(=O)c4c5n(c(C)c(C6=CCCC6)c4=O)CCOC5)cc3)c2nc1OC [Compound 99, 7-(Cyclopenten-1-yl)-N-[4-[(6,7-dimethoxy-1,5-naphthyridin-4-yl)oxy]phenyl]-6-methyl-8-oxo-3,4-dihydro-1H-pyrido[2,1-c][1,4]oxazine-9-carboxamide]

Second part, the compound before the results:

Compound	IC50 (Human KDR)	IC50 (Human Mer)
COc1ccc2nccc(Oc3ccc(NC(=O)c4cnc(C)c(C5=CCCC5)c4O)cc3F)c2n1 [Compound 1-7, 5-(Cyclopenten-1-yl)-N-[3-fluoro-4-[(6-methoxy-1,5-naphthyridin-4-yl)oxy]phenyl]-4-hydroxy-6-methylpyridine-3-carboxamide]	≤ 100 nM	≤ 100 nM
COc1cc2nccc(Oc3ccc(NC(=O)c4c(C)nc(C)c(C5=CCCCC5)c4O)cc3F)c2nc1OC [Compound 2-3, 5-(Cyclohexen-1-yl)-N-[4-[(6,7-dimethoxy-1,5-naphthyridin-4-yl)oxy]-3-fluorophenyl]-4-hydroxy-2,6-dimethylpyridine-3-carboxamide]	≤ 100 nM	≤ 100 nM
COc1cc2nccc(Oc3ccc(NC(=O)c4cnc(C)c(C5=CCCC5)c4O)cc3F)c2cc1OC [Compound 18, 5-(Cyclopenten-1-yl)-N-[4-(6,7-dimethoxyquinolin-4-yl)oxy-3-fluorophenyl]-4-hydroxy-6-methylpyridine-3-carboxamide]	≤ 100 nM	≤ 100 nM
COCCOc1cc2nccc(Oc3ccc(NC(=O)c4cnc(C)c(C5=CCCCC5)c4O)cc3F)c2nc1OC [Compound 34, 5-(Cyclohexen-1-yl)-N-[3-fluoro-4-[[6-methoxy-7-(2-methoxyethoxy)-1,5-naphthyridin-4-yl]oxy]phenyl]-4-hydroxy-6-methylpyridine-3-carboxamide]	≤ 100 nM	≤ 100 nM
COCCOc1cc2nccc(Oc3ccc(NC(=O)c4c(C)n(C)c(C)c(/C=C/C(C)(C)C)c4=O)cc3F)c2nc1OC [Compound 45, 5-[(E)-3,3-Dimethylbut-1-enyl]-N-[3-fluoro-4-[[6-methoxy-7-(2-methoxyethoxy)-1,5-naphthyridin-4-yl]oxy]phenyl]-1,2,6-trimethyl-4-oxopyridine-3-carboxamide]	≤ 100 nM	≤ 100 nM
COc1ccc2nccc(Oc3ccc(NC(=O)c4cnc(C)c(C5=CCCCC5)c4O)cc3F)c2n1 [Compound 1-6, 5-(Cyclohexen-1-yl)-N-[3-fluoro-4-[(6-methoxy-1,5-naphthyridin-4-yl)oxy]phenyl]-4-hydroxy-6-methylpyridine-3-carboxamide]	100 to 300 nM	≤ 100 nM
COc1cc2nccc(Oc3ccc(NC(=O)c4c(C)cc(C)n(C5=CCCC5)c4=O)cc3F)c2nc1OC [Compound 14, 1-(Cyclopenten-1-yl)-N-[4-[(6,7-dimethoxy-1,5-naphthyridin-4-yl)oxy]-3-fluorophenyl]-4,6-dimethyl-2-oxopyridine-3-carboxamide]	≤ 100 nM	≤ 100 nM
COc1cc2nccc(Oc3ccc(NC(=O)c4cnc(C)c(C5=CCOCC5)c4O)cc3F)c2cc1OC [Compound 19, 5-(3,6-Dihydro-2H-pyran-4-yl)-N-[4-(6,7-dimethoxyquinolin-4-yl)oxy-3-fluorophenyl]-4-hydroxy-6-methylpyridine-3-carboxamide]	≤ 100 nM	≤ 100 nM
COc1cc2nccc(Oc3ccc(NC(=O)c4c5n(c(C)c(C6=CCOCC6)c4=O)CCOC5)cc3F)c2nc1OC [Compound 79, 7-(3,6-Dihydro-2H-pyran-4-yl)-N-[4-[(6,7-dimethoxy-1,5-naphthyridin-4-yl)oxy]-3-fluorophenyl]-6-methyl-8-oxo-3,4-dihydro-1H-pyrido[2,1-c][1,4]oxazine-9-carboxamide]	> 300 nM	≤ 100 nM
COc1cnc2c(Oc3ccc(NC(=O)c4cnc(C)c(C5=CCOCC5)c4O)cc3)ccnc2c1 [Compound 7, 5-(3,6-Dihydro-2H-pyran-4-yl)-4-hydroxy-N-[4-[(7-methoxy-1,5-naphthyridin-4-yl)oxy]phenyl]-6-methylpyridine-3-carboxamide]	≤ 100 nM	≤ 100 nM
COCCOc1cc2nccc(Oc3ccc(NC(=O)c4cnc(C)c(/C=C/C(C)(C)C)c4O)cc3F)c2nc1OC [Compound 40, 5-[(E)-3,3-Dimethylbut-1-enyl]-N-[3-fluoro-4-[[6-methoxy-7-(2-methoxyethoxy)-1,5-naphthyridin-4-yl]oxy]phenyl]-4-hydroxy-6-methylpyridine-3-carboxamide]	≤ 100 nM	≤ 100 nM
COc1cc2nccc(Oc3ccc(NC(=O)c4c(C)ccn(C(C)C)c4=O)cc3)c2nc1OC [Compound 39, N-[4-[(6,7-Dimethoxy-1,5-naphthyridin-4-yl)oxy]phenyl]-4-methyl-2-oxo-1-propan-2-ylpyridine-3-carboxamide]	> 300 nM	≤ 100 nM
COc1cc2nccc(Oc3ccc(NC(=O)c4cn(C)c(C)c(C5CCCC5)c4=O)cc3F)c2nc1OC [Compound 2, 5-Cyclopentyl-N-[4-[(6,7-dimethoxy-1,5-naphthyridin-4-yl)oxy]-3-fluorophenyl]-1,6-dimethyl-4-oxopyridine-3-carboxamide]	≤ 100 nM	≤ 100 nM
